Results on one compound are retold here after publication PMC12051620, “Molecular basis underlying the specificity of an antagonist AA92593 for mammalian melanopsins” (The Journal of Biological Chemistry, 2025).

“Also recorded” adds a separate entry of the source.

Common to all, as to assay: NanoBiT Gq dissociation assay using Gqα/R183Q-LgBiT
What all share (assay type): cell-based

The target of assay [1] is T1, human melanopsin F94^2.61C/S188^ECL2T/S269^6.52A mutant (Homo sapiens, UniProt Q9UHM6, F127C/S222T/S313A).
T1 construct: expressed in transfected cells; host or cells: COS-1
T1 sequence (Q9UHM6 1-384 F127C/S222T/S313A): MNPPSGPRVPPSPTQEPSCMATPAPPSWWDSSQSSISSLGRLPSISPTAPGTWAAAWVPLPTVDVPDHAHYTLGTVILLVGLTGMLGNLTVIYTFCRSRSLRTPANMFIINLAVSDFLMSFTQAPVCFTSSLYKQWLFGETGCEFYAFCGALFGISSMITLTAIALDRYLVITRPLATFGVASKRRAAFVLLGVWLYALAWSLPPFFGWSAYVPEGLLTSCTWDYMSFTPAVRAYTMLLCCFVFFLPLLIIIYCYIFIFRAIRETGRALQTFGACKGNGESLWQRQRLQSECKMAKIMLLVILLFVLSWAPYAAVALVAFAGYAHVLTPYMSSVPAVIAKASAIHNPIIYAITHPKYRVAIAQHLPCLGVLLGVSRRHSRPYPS
Particulars: 1.67 and 16.7 μM AA92593; COS-1 cells. From the text:
(§1) As described above, we have assessed the inhibitory effect of AA92593 using the GsX GloSensor assay. To confirm whether an antagonistic effect could be observed in another experimental system, we used the NanoBiT G protein dissociation assay ([23]). In this assay, Gq activation (dissociation) is detected as a decrease in NanoLuc luminescence from the Lg-BiT fragment inserted with Gqα and the Sm-BiT fragment fused with Gβγ (see “Experimental procedures”) ([23], [24]). If an antagonistic effect is observed in the NanoBiT assay, the light-dependent decrease in luminescence (Gq dissociation) by melanopsin would be reduced in the presence of AA92593. […] A recent study reported that the introduction of a GTPase-deficient substitution, R183Q, on Gqα increased GPCR-induced Gq dissociation signals in a BRET-based biosensor assay, TRUPATH ([25]). […]
(§2) For GloSensor assay, opsins, GloSensor assay sensor (coded by pGlo-22F), and NanoBiT-tagged G proteins were transiently expressed in COS-1 cells (kindly provided from Dr David Farrens, Oregon Health and Science University) using PEI as described previously ([24], [52]). […] For GFP-fluorescence microscopy, a 35-mm cell culture dish (IWAKI) was transfected with 2 μg melanopsin-GFP plasmid and 8 μg PEI in 400 μl Opti-mem and 1.2 ml D-MEM. […]
(§3) The transfected COS-1 cells were incubated at 37 °C, 5% CO2 for 1 day, and the medium was aspirated, followed by the addition of 50 μl of HBSS containing 33.3, 3.33, or 0 μM AA92593, 0.5% DMSO, and 10 μM coelenterazine h (Wako). […] After incubation of the cells, luminescence measurement was interrupted, the plate was ejected, and the cells were added 50 μl of HBSS containing 0.2 μM 9-cis-retinal. […] Luminescence was measured using GM-2000 or GM-3510 microplate reader (Promega). Luminescence level of each well was measured every 18 s with integration time of 0.3 s. To illuminate opsins, luminescence measurement was interrupted, the plate was ejected, and the plate was illuminated by white light with CN-160 LED video light (light intensity, ∼9 mW/cm^2) (NEEWER). After illumination, luminescence measurement was resumed. […]

Assay [2] has as its target T2, human melanopsin F94^2.61C/S188^ECL2T/W189^ECL2F/S269^6.52A mutant (Homo sapiens, UniProt Q9UHM6, F127C/S222T/S313A/W223F).
T2 construct: expressed in transfected cells; host or cells: COS-1
The note with it: 1.67 and 16.7 μM AA92593; COS-1 cells.
Excerpt: as §1, §2, §3

A further assay deals with T3, human melanopsin WT (Homo sapiens, UniProt Q9UHM6).
T3 construct: expressed in transfected cells; host or cells: COS-1
T3 sequence (Q9UHM6 1-384 limits assumed): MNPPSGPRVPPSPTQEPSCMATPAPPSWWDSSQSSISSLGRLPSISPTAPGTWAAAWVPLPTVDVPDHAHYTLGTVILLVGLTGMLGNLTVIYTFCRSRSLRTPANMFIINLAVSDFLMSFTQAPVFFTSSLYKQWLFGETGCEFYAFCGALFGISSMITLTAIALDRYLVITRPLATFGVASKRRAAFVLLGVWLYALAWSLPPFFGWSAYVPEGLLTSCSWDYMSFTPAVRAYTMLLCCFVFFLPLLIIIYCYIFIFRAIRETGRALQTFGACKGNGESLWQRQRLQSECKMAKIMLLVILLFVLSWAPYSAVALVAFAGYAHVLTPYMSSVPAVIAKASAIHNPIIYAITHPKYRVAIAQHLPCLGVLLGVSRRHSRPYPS
Particulars: 1.67 and 16.7 μM AA92593; COS-1 cells; concentration-dependent.
Excerpt: as §1, §2, §3

T2 sequence (Q9UHM6 1-384 F127C/S222T/W223F/S313A): as the sequence (Q9UHM6 1-384 F127C/S222T/S313A) above, with W223F counted along it

Take `COc1ccc(S(=O)(=O)N2CCCCC2)cc1C` [AA92593]: in assay [1], the “AA92593-dependent inhibitory effect on Gq activation compared to WT” value is listed as “much reduced; also recorded: almost insensitive”. Also, the “sensitivity to AA92593 in Gq dissociation” value in assay [2] is given as “little sensitivity”. Besides, the “effect on light-dependent decrease in NanoLuc luminescence (Gq dissociation)” value at human melanopsin WT was “weakened”.
